Test results from patent publication US7439251B2, “Methods and compositions for treatment of central and peripheral nervous system disorders and novel compounds useful therefor” (Israel Institute for Biological Research, priority 2002, dated 2008).

Key:
[1] = system: rat pheochromocytoma cells transfected with the M1 mAChR
Description: Confluent rat pheochromocytoma cells transfected with the M1 mAChR cultures were detached with trypsin, washed and plated in 24well, 6-well, 60-mm or 100-mm plates that were precoated with rat tail collagen (Sigma, Israel). Several experiments were performed in serum-free medium. For 3-(4,5-dimethylthiazol-2-yl)-2,5-diphenyl-tetrazolium bromide (MIT) assay, cells (1.5×10^4) were plated in 96-well collagen-precoated plates, in serum-free medium, with or without various drugs for 24 hours. For differentiation, cells were grown in the presence of 1% FCS and 1% HS, with addition of 50 ng/ml NGF for 7 days, to cause full differentiation. […] After 7 days, cells were washed and the medium was either replaced to serum-free, or cells were detached and replated in serum-free medium. Cells in serum-free medium were treated either with Aβ peptides that were previously “aged” or with H2O2. Tested compounds were added together with the insults for the indicated time, unless otherwise stated.
Cells were grown and treated on glass coverslips. After treatments, cells were fixed in cold methanol for 5 min at −20° C. followed by treatment with cold acetone at 4° C. for 2 min and washing in PBS. The coverslips were fluorescently stained with DAPI (4,6-diamidino-2-phenylindole; 5 mg/ml, Sigma, Israel) an intercalating agent that enables visualization of chromatin condensation in the cell nuclei for 15 min at room temperature. Cells were washed three times with PBS, mounted in a solution of glycerol containing 22 mM 1,4 dizabicyclo(2,2,2)octane (Sigma, Israel) to prevent fading, and viewed for nuclear chromatin morphology with a fluorescence microscope. Apoptotic and viable cells were counted (200 cells per coverslip, each experiment was performed in duplicates).
The TUNEL (Terminal deoxynucleotidyl transferase (TdT) mediated dUTP nick end labeling) method enzymatically labels DNA fragments at the 3′OH ends (representing the DNA strand breaks) with fluorescein-dUPT (Boehringer Mannheim, Germany). Briefly, following treatment, cells grown on Chamber slides were fixed with paraformaldehyde solution (4%) in PBS, pH 7.4 for 30 min at room temperature. Following washing with PBS cells were permeabilized using 0.1% Triton X-100, 0.1% sodium citrate solution, for 2 min on ice (4° C.), washed with PBS and 50 μl of TUNEL reaction mixture was added on each sample for 1 hr at 37° C., in a humidified chamber. Evans Blue reagent (diluted 1:2000 in PBS) was added for 5 min and the slides were viewed with fluorescence microscope.
Cells were differentiated for 7 days and detached from the plates with Trypsin. 10^6 cells were replated in 50-mm collagen-coated plates in serum-free medium in presence or absence of various treatments. 200-g-centrifuged pellets were prepared and resuspended in 300 μl PBS. 4 ml of cold methanol (−20° C.) were added to each test tube and the fixation was carried out for 15 min at −20° C. Cells were washed in PBS, spun and resuspended in 1 ml PBS. Five microliters of Propidium iodide stock solution (Sigma; 10 mg/ml) and 5 μl of 20 mg/ml solution of RNAse A were added for 5-10 min at room temperature. Fluorescence of individual nuclei was measured using Fluorescence Activated Cell Sorter (FACScan; Becton Dickinson Corp.) excited at 488 nm wavelength and collected through 575±21 nm BP filter. The data were analyzed by Cell Quest software computer system. By this method we were able to measure DNA content of the cells (apoptotic cells have less DNA). Cells in G1 phase of cell cycle are after mitosis and have less DNA than cells in G2/M phase (before and during mitosis). Apoptotic cells were identified as the pre-G1 phase.

APPs secretion = APPs secretion in rat primary hippocampal, cortical and spinal cord cultures; type: cell-based; details: 100 μM, 1 h
human M1 receptor = biological target: T1, human M1 receptor (Homo sapiens, UniProt P11229); experiment: PI hydrolysis, human M1; type: cell-based
T1 construct: expressed in transfected cells
T1 sequence (P11229 1-460): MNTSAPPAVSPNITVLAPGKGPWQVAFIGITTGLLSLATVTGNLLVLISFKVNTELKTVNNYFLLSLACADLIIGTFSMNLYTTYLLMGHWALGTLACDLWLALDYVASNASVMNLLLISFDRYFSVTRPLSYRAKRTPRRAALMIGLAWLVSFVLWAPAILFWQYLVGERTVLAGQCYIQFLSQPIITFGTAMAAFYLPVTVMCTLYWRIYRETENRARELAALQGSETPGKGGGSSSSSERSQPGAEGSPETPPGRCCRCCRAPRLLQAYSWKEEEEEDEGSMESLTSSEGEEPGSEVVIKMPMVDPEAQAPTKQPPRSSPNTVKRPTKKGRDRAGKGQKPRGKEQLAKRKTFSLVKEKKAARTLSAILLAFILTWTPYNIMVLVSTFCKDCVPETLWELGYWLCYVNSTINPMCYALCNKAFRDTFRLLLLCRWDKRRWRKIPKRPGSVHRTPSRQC

[2] = Passive avoidance in trihexyphenidyl treated rats; type: in vivo, rat; details: for Trihexyphenidyl-rats-Passive avoidance, effect: AF292 0.03, 0.05, 0.1, 0.3, 0.5 mg/kg p.o., AF267B 0.5, 1, 5; for Trihexyphenidyl-rats-Passive avoidance, MED: p.o.
From the text: Trihexyphenidyl is a selective M1 muscarinic antagonist that crosses the blood brain barrier and induces memory and learning impairments (Bymaster et al. J Pharmacol Exp Ther 267: 16-24, 1993. Roldan et al Neurosci. Lett. 230: 93-96, 1997; Kimura et al Brain Res. 834: 6-12, 1999).
Naive Wistar rats were used in the experiments below. The passive avoidance (PA) task is comprised of training (acquisition) phase and a retention phase. In the training procedure each rat was individually placed in the small illuminated compartment and after 60 sec. of familiarization/adaptation, the door to the large compartment was opened and the latency to enter was measured (Initial Latency). Immediately following entry into the dark compartment, the door was closed and inescapable foot shock (0.6 mA for 3 sec) was delivered through the grid floor. A cutoff point of 180 sec was used for initial latency. […] After the acquisition trial the rat was returned to its home cage. Retention of the passive avoidance task was measured 24 h later, by again placing the rat in the light compartment and after a 60 sec adaptation interval, the door was opened and the latency to renter the dark compartment was measured. A cutoff point of 300 sec was used for retention latency.

Structure (SMILES)	H2O2-induced apoptosis (DAPI) [1]	apoptotic cell death induced by starvation (DAPI) [1]	apoptotic death during starvation (FACS) [1]	β-amyloid 25-35 induced apoptosis (TUNEL) [1]	β-amyloid increased apoptotic population (FACS) [1]	APPs secretion, fold over control (APPs secretion) [fold]	PI turnover vs. CCh (as 100%) (human M1 receptor) [%]	Trihexyphenidyl-rats-Passive avoidance, effect [2]	Trihexyphenidyl-rats-Passive avoidance, MED [2]	Trihexyphenidyl-rats-Passive avoidance, duration ([2]; rat, in vivo)	potency among the tested agonists ([2]; rat, in vivo)
CC1=NCC2(CCN(C)CC2)S1 [AF150(S), 2,8-Dimethyl-1-thia-3,8-diaza-spiro[4.5]dec-2-ene]	prevented	significantly protect	protected cells from apoptotic death	able to block the apoptosis	reduced the apoptotic population significantly	2.8					
CC[C@@H]1SC2(CCN(C)CC2)NC1=O [AF267B, (S)-2-ethyl-8-methyl-1-thia-4,8-diaza-spiro[4.5]decan-3-one]	prevented	significantly protect	protected cells from apoptotic death		reduced the apoptotic population significantly	2.8	~66	0.5, 1, 5 positive effects	MED 0.1-0.5 mg/kg, p.o.		
CC[C@@H]1SC2(CCNCC2)NC1=O [AF292, (S)-2-Ethyl-1-thia-4,8-diaza-spiro[4.5]decan-3-one]							~35	positive effects	≤ 0.03 mg/kg	LONG DURATION OF ACTION	most potent compound among the tested agonists
